Laboratory results as given in patent publication US20040023878A1, “Gnrh analogues for treatment of urinary incontinence” (priority 2003, published 2004).
Where “and” joins values, the source holds several entries; their conditions need not be identical. Identical values can stand only once. Entries after “also recorded” stand apart in the source; their conditions may differ. Counter-ions that a name gives are not always drawn.

Key:
[1] = test system: bitches suffering from urinary incontinence after spaying; assay: Fifteen bitches with urinary incontinence after spaying, given a slow-release s.c. GnRH analogue implant plus phenylpropanolamine for a limited period; type: in vivo, dog; conditions: for Side effects: dash = none
Description: Additionally, for a limited period the dogs were treated with phenylpropanolamine in a dosage of 1.5 mg/kg BW tid orally.
After discontinuation of the shortacting phenylpropanolamine 8 bitches remained continent. Their continence was therefore achieved solely by the treatment with the composition as described in the present invention. Seven out of fifteen dogs seemed to be much happier and in none of the dogs did the general condition deteriorate. […] The respective results are shown in more detail in table 1.

[2] = test system: urge incontinence and hotflushes; assay: Perimenopausal person with urge incontinence and hot flushes; type: in vivo, human; conditions: 3.75 mg; one perimenopausal person
[3] = test system: excessive growth of the undercoat (baby coat) due to spaying; assay: Two cocker spaniel bitches with excessive growth of the undercoat due to spaying, slow-release s.c. implant; type: in vivo, dog; conditions: 5 mg slow release s.c.
Description: Two cocker spaniel bitches belonging to the same owner were showing excessive growth of the undercoat due to spaying. […] Both dogs were first clinically examined and thereafter a GnRH analogue (Deslorelin) in a dosage of 5 mg, in slow release form, was subcutaneously implanted between the shoulder blades.

[4] = test system: urinary incontinence of the bitch; conditions: 1.5 mg/kg BW p.o. given every 8 hours; incontinent spayed bitches; cited from earlier work
[5] = test system: dogs suffering from urinary incontinence; assay: Double-blind, placebo-control study with open label phase in 16 client owned dogs suffering from urinary incontinence; type: in vivo, dog; conditions: ongoing study
Description: In a second ongoing study, 16 client owned dogs suffering from urinary incontinence were enrolled in a double-blind, placebo-control study. In the initial phase of the study, dogs were randomly assigned to treatment with a long-acting GnRH analogue (leuprolide acetate) or placebo (dog owners and the investigators were blinded to treatment) along with a short course of therapy with phenylpropanolamine. 5 weeks after treatment with drug or placebo, dogs were evaluated and, if not fully continent, treated with a long-acting GnRH analogue (leuprolide acetate) in an open label phase of the study. To date only 1 of 10 dogs treated with placebo became continent vs. […] treated with drug during the blinded portion of the study. Overall, the results generated thus far indicate […] dogs treated with the long-acting GnRH analogue became continent and […] improved after discontinuation of the short acting phenylpropanolamine. Only 1 dog of 15 treated with the GnRH analogue was considered not to have improved following treatment with the drug.

stress incontinence = assay: Menopausal person with stress incontinence, 24 hour pad test; type: in vivo, human; conditions: single dose 3.75 mg, one person
Description: A second menopausal person, suffering from stress incontinence for at least 6 years, was treated with a single dose of 3.75 mg of leuprolide acetate. 24 hour pad tests conducted prior to treatment with the drug indicated they lost between 10 and 130 ml of urine on a daily basis due to their incontinence.

[6] = 6 mg slow release s.c. implant, no 'with PPA' mark, individual bitches
[7] = 12 mg slow release s.c. implant, no 'with PPA' mark, individual bitches
[8] = 11,25 mg slow release s.c. implant, no 'with PPA' mark, individual bitches, listed as Leuprorelin acetate
[9] = 11,25 mg slow release s.c. implant, with PPA, individual bitch

Molecule: Triptorelin acetate [Triptorelinacetate]
- Duration of effect after treatment ([1]; 3,75 mg slow release s.c. implant (dose too low), individual bitch): 0
- Period of improvement of symptoms [2]: about 4 weeks

Molecule: CCNC(=O)[C@@H]1CCCN1C(=O)[C@H](CCCN=C(N)N)NC(=O)[C@H](CC(C)C)NC(=O)[C@@H](Cc1c[nH]c2ccccc12)NC(=O)[C@H](Cc1ccc(O)cc1)NC(=O)[C@H](CO)NC(=O)[C@H](Cc1c[nH]c2ccccc12)NC(=O)[C@H](Cc1cnc[nH]1)NC(=O)[C@@H]1CCC(=O)N1 [Deslorelin]
- Coat quality ([3]; 5 weeks after the injection, both dogs): obvious amelioration of the coat quality
- Signs of baby coat ([3]; 21 weeks after injection): no signes of “baby coat” were apparent anymore

Molecule: Deslorelin acetate [Deslorelinacetate]
- Side effects ([1]; 6 mg slow release s.c. implant, individual bitches): More playfull
- Duration of effect after treatment [1, 6]: >47 days and >340 days
- Effect on incontinence [1, 6]: 100%
- Effect on incontinence ([1]; 6 mg slow release s.c. implant, with PPA, individual bitch): 100%
- Side effects ([1]; 12 mg slow release s.c. implant, individual bitches): less aggressive; also recorded: more activ
- Duration of effect after treatment [1, 7]: 64 days and >64 days
- Effect on incontinence [1, 7]: 100%
- Effect on incontinence ([1]; 12 mg slow release s.c. implant, with PPA, individual bitches): 80% and 100% (2×)

Molecule: CN[C@@H](C)[C@H](O)c1ccccc1 [ephedrinhydrochloride]
- Continence achieved [4]: 74%
- Showed some improvement [4]: at least 24%

Molecule: Buserelin acetate [Buserelinacetate]
- Duration of effect after treatment ([1]; 6,3 mg slow release s.c. implant, individual bitches): 44 days and 83 days
- Effect on incontinence ([1]; 6,3 mg slow release s.c. implant, no 'with PPA' mark, individual bitches): 100%

Molecule: CC(N)C(O)c1ccccc1 (centres unmarked) [phenylpropanolamine]
- Continence achieved [4]: 74%
- Showed some improvement [4]: at least 24%

Molecule: CCNC(=O)[C@@H]1CCCN1C(=O)[C@H](CCCNC(=N)N)NC(=O)[C@H](CC(C)C)NC(=O)[C@@H](CC(C)C)NC(=O)[C@H](Cc1ccc(O)cc1)NC(=O)[C@H](CO)NC(=O)[C@H](Cc1c[nH]c2ccccc12)NC(=O)[C@H](Cc1c[nH]cn1)NC(=O)[C@@H]1CCC(=O)N1 [Leuprorelinacetate, leuprolide acetate]
- Dogs that became continent after discontinuation of phenylpropanolamine, overall ([5]; of 15 dogs treated (blinded plus open label)): 6 dogs
- Dogs considered not to have improved following treatment ([5]; of 15 treated): 1 dog
- Remaining dogs that improved after discontinuation of phenylpropanolamine ([5]; of the remaining dogs of 15 treated): 9 dogs
- Dogs that became continent during the blinded portion of the study ([5]; printed '3 to 8 dogs treated with drug', 5 weeks after treatment, with short course of phenylpropanolamine): 3 dogs
- Duration of effect after treatment ([1]; 11,25 mg slow release s.c. implant, no 'with PPA' mark, individual bitches): 0 days
- Duration of effect after treatment [1, 8]: >14 days
- Effect on incontinence [1, 8]: 100%
- Duration of effect after treatment [1, 9]: >64 days
- Effect on incontinence [1, 9]: 100%
- Daily urine loss, pad test (stress incontinence; 2 weeks after treatment, before treatment between 10 and 130 ml daily): 1 mL
- Patient's satisfaction with the effects of the therapy (stress incontinence): very satisfied
